Assay results reported in patent US20120258174A1, “Methods for Treating Bacterial Infection” (Innocoll Technologies Limited, priority 2011, published 2012).

System: organisms isolated from the infected wounds at baseline
Test: Gentamicin MIC testing against all isolated pathogens up to 1024 μg/mL
Type: cell-based
Settings: 87 of 95 organisms isolated at baseline
Protocol: Minimum inhibitory concentration (MIC) testing was performed on all isolated pathogens to determine susceptibility to systemic concentrations of levofloxacin, linezolid, vancomycin and oxacillin for gram-positive species and levofloxacin, aztreonam and piperacillin/tazobactam for gram-negative species. Definitive gentamicin MIC testing against all isolated pathogens up to 1024 μg/mL to mimic high local concentrations were also performed.

Structure (SMILES): CN[C@@H]1[C@@H](O)C(O[C@@H]2[C@@H](O)[C@H](O[C@H]3O[C@H]([C@@H](C)NC)CC[C@H]3N)[C@@H](N)C[C@H]2N)OC[C@]1(C)O (stereo partly drawn) [gentamicin, (3R,4R,5R)-2-{[(1S,2S,3R,4S,6R)-4,6-diamino-3-{[(2R,3R,6S)-3-amino-6-[(1R)-1-(methylamino)ethyl]oxan-2-yl]oxy}-2-hydroxycyclohexyl]oxy}-5-methyl-4-(methylamino)oxane-3,5-diol]
- organisms whose gentamicin MIC would be exceeded by a local concentration of up to 1000 μg/mL: 92%
